Patent publication US8962660B2 (Bristol-Myers Squibb Company, priority 2013, dated 2015)
Counter-ions that a name gives are not always drawn.

The molecules below were run against T1, human GPR120 (Homo sapiens, UniProt Q5NUL3) (assay: GPR120 pERK AlphaScreen SureFire assay (human)). Conditions: CHO cells stably transfected with short form of human GPR120.
T1 construct: expressed in transfected cells; host or cells: CHOA12 cells
T1 sequence (Q5NUL3 1-361): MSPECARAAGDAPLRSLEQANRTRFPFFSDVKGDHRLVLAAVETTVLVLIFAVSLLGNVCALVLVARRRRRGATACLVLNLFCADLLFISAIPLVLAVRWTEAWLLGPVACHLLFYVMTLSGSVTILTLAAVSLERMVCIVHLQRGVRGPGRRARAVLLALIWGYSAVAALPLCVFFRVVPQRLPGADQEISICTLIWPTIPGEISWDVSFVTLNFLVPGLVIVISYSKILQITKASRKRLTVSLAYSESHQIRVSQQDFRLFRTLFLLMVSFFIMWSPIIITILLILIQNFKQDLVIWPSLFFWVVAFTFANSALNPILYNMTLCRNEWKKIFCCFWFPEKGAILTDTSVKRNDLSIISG
Assay type: cell-based
From the text: GPR120 activity was monitored by measuring phosphorylation of ERK (pERK), since G protein receptors are known to activate the ERK signaling cascade either directly and/or through recruitment of arrestin that serves as a scaffold for downstream signaling events.
GPR120 pERK AlphaScreen SureFire Assay
The human and mouse GPR120-mediated intracellular phosphorylated ERK assays were established using CHOA12 cells stably transfected with the short form of human or mouse GPR120 receptor. Cells were cultured in growth medium consisting of F-12 media (Invitrogen Cat. #11765) with 5% Charcoal/Dextran FBS (Invitrogen Cat. #12676-029), 500 μg/mL GENETICIN® (Life Technologies Cat. #10131-027) and 250 μg/mL Zeocin (Invitrogen Cat. #R250-01). Cells were cryo preserved at a concentration of 2×10^7 cells/mL, in 90% Charcoal/Dextran FBS and 10% DMSO, and frozen in liquid nitrogen at a low passage number.
For the pERK assay, 2×10^7 cells/mL cryopreserved human and mouse cells were thawed rapidly in a 37° C. water bath and added to a T-225 flask containing 50 mL growth medium. The flasks were placed in a tissue culture incubator overnight (37° C., 5% CO2). The next day, cells were harvested with trypsin (Gibco Cat. #25300-054), resuspended in serum-containing growth medium and counted using a Cellometer and volume adjusted to a concentration of 0.6×10^6cells/mL. Cells were plated into 384-well clear bottom tissue culture plates (BD Cat. #353962) at 50 μL/well, for a density of 30,000 cells/well using a MULTIDROP® and incubated for 16-18 hours (overnight) at 37° C. with 5% CO2. The next day, cells were serum starved in 30 μL of F-12 media without any serum or antibiotics for 2 hours at 37° C.
Test compounds were 3-fold, 11-point serially diluted in DMSO in a REMP assay plate (Matrix Cat. #4307) by Tecan and 5 μL was transferred into an ECHO source plate (LABCYTE® Cat. #LC-0200). Cells were then stimulated with 50 nL of compound dilutions using ECHO liquid handler for 7 minutes at 37° C. Compounds ranged from final assay concentrations of 33.33 μM to 0.56 nM.
The media was then dumped and cells lysed with 20 μL of 1× Lysis buffer from the AlphaScreen SureFire Phospho-ERK 1/2 Kit (Perkin Elmer Cat. #6760617M). The lysis buffer was diluted 5-fold with water before use. The plate was agitated on a shaker for 10 minutes after which 2 μL was transferred into a 384-well white proxiplate (Perkin Elmer Cat. #6008289). The SureFire assay reagent mix was prepared by mixing 60 parts Reaction Buffer, 10 parts Activation Buffer, 1 part Donor Beads, 1 part Acceptor Beads (Perkin Elmer Cat. #TGRES10K). 3.5 μL/well of this reagent mix was manually added to the proxiplate with a multichannel pipettor. Plates were spun down at 1000 rpm for 2 minutes, followed by light-protected incubation at room temperature for 2 hours. The plates were read on the Alpha-technology compatible Envision multilabel plate reader using AlphaScreen protocol according to manufacturer's specifications. The agonist effect of compounds was expressed as 100×(average sample−average blank)/(average total−average blank) where sample is the luminescence activity in the presence of test compound, blank is equal to the luminescence activity in the presence of DMSO control and the total is signal induced by 50 μM linolenic acid as reference compound. Activation data for the test compound over a range of concentrations was plotted as percentage activation of the test compound (100%=maximum response). After correcting for background, EC50 values were determined The EC50 is defined as the concentration of test compound which produces 50% of the maximal response and was quantified using the 4 parameter logistic equation to fit the data.
The human and mouse GPR120-mediated intracellular phosphorylated ERK assays were also established using CHO-K1 cells stably transfected with the short form of human or mouse GPR120 receptor. […]

Structure (SMILES)	EC50 [nM]
Cc1cc(Oc2cccc(C34CCC(CCOCC(=O)O)(CC3)CO4)c2)ccc1F [Example 78, 2-(2-(1-(3-(4-fluoro-3-methylphenoxy)phenyl)-2-oxabicyclo[2.2.2]octan-4-yl)ethoxy)acetic acid]	490
COc1cc(Oc2ccccc2)cc(C23CCC(CCOCC(=O)O)(CC2)CO3)c1 [Example 90, 2-(2-(1-(3-methoxy-5-phenoxyphenyl)-2-oxabicyclo[2.2.2]octan-4-yl)ethoxy)acetic acid]	950
O=C(O)COC(=O)NCC12CCC(c3cccc(Oc4ccccc4)c3)(CC1)OC2 [Example 28, 2-((1-(3-Phenoxyphenyl)-2-oxabicyclo[2.2.2]octan-4-yl)methylcarbamoyloxy)acetic acid]	1980
O=C(O)COCCCC12CCC(c3cccc(Oc4ccccc4)c3)(CC1)OC2 [Example 12, 2-(3-(1-(3-Phenoxyphenyl)-2-oxabicyclo[2.2.2]octan-4-yl)propoxy)acetic acid]	980
N#Cc1cccc(Oc2cccc(C34CCC(CCOCC(=O)O)(CC3)OC4)c2)c1 [Example 107]	1870
Cc1ccc(Oc2cccc(C34CCC(CCOCC(=O)O)(CC3)OC4)c2)cc1F [Example 101]	320
CCc1cccc(Oc2cccc(C34CCC(CC[C@@H]5C[C@H]5C(=O)O)(CC3)CO4)c2)c1 [Example 118, (1R,2R)-2-(2-(1-(3-(3-Ethylphenoxy)phenyl)-2-oxabicyclo[2.2.2]octan-4-yl)ethyl)cyclo-propane carboxylic acid]	1890
O=C(O)[C@@H]1C[C@H]1CCC12CCC(c3cccc(Oc4ccccc4)c3)(CC1)OC2 (single isomer, unassigned) [Example 15]	480
O=C(O)[C@@H]1C[C@H]1COCC12CCC(c3cccc(Oc4ccccc4)c3)(CC1)OC2 (single isomer, unassigned) [Example 98]	1020
CC(C)COc1cc(F)cc(C23CCC(CCOCC(=O)O)(CC2)CO3)c1 [Example 36, 2-(2-(1-(3-Fluoro-5-isobutoxyphenyl)-2-oxabicyclo[2.2.2]octan-4-yl)ethoxy)acetic acid]	720
O=C(O)COCCC12CCC(c3cccc(Oc4ccc(Cl)cc4)c3)(CC1)OC2 [Example 40, 2-(2-(1-(3-(4-chlorophenoxy)phenyl)-2-oxabicyclo[2.2.2]octan-4-yl)ethoxy) acetic acid]	300
COc1cccc(C23CCC(CCCCC(=O)O)(CC2)CO3)c1 [Example 3, 5-(1-(3-Methoxyphenyl)-2-oxabicyclo[2.2.2]octan-4-yl)pentanoic acid]	200
O=C(O)CCOCC12CCC(c3cccc(Oc4ccccc4)c3)(CC1)CO2 [Example 30, 3-((4-(3-Phenoxyphenyl)-2-oxabicyclo[2.2.2]octan-1-yl)methoxy)propanoic acid]	140
Cc1ccc(Oc2cc(C34CCC(CCOCC(=O)O)(CC3)CO4)ccc2F)cc1F [Example 89, 2-(2-(1-(4-fluoro-3-(3-fluoro-4-methylphenoxy)phenyl)-2-oxabicyclo [2.2.2]octan-4-yl)ethoxy) acetic acid]	350
Cc1cccc(Oc2cccc(C34CCC(CCOCC(=O)O)(CC3)CO4)c2)c1 [Example 43, 2-(2-(1-(3-(m-tolyloxy)phenyl)-2-oxabicyclo [2.2.2]octan-4-yl)ethoxy)acetic acid]	550
Cc1cc(Oc2cccc(C34CCC(CCOCC(=O)O)(CC3)OC4)c2)ccc1F [Example 103]	540

Structure (SMILES)	EC50 [nM]
Cc1ccc(Oc2cc(C34CCC(CCOCC(=O)O)(CC3)OC4)ccc2F)cc1C [Example 113]	860
O=C(O)CCCCC12CCC(c3cccc(OC4CCCCO4)c3)(CC1)OC2 (stereo not shown) [Example 10, 5-(1-(3-(Tetrahydro-2H-pyran-2-yloxy)phenyl)-2-oxabicyclo[2.2.2]octan-4-yl)pentanoic acid]	640
O=C(O)COCCC12CCC(c3cccc(Oc4cccc(F)c4)c3)(CC1)OC2 [Example 45, 2-(2-(1-(3-(3-fluorophenoxy)phenyl)-2-oxabicyclo[2.2.2]octan-4-yl)ethoxy) acetic acid]	280
O=C(O)CCOCC12CCC(c3cccc(Oc4ccccc4)c3)(CC1)OC2 [Example 5, 3-((1-(3-Phenoxyphenyl)-2-oxabicyclo[2.2.2]octan-4-yl)methoxy)propanoic acid]	80
O=C(O)COCCC12CCC(c3ccccc3Oc3ccccc3)(CC1)OC2 [Example 37, 2-(2-(1-(2-Phenoxyphenyl)-2-oxabicyclo[2.2.2]octan-4-yl)ethoxy)acetic acid]	1140
COc1cc(Oc2cc(F)cc(C34CCC(CCOCC(=O)O)(CC3)CO4)c2)ccc1F [Example 86, 2-(2-(1-(3-fluoro-5-(4-fluoro-3-methoxyphenoxy)phenyl)-2-oxabicyclo [2.2.2]octan-4-yl)ethoxy) acetic acid]	850
CCc1cccc(Oc2cccc(C34CCC(CCOCC(=O)O)(CC3)CO4)c2)c1 [Example 119, 2-(2-(1-(3-(3-Ethylphenoxy)phenyl)-2-oxabicyclo[2.2.2]octan-4-yl)ethoxy)acetic acid]	1600
O=C(O)COCCC12CCC(c3cccc(Oc4cccnc4)c3)(CC1)OC2 [Example 21, 2-(2-(1-(3-(Pyridin-3-yloxy)phenyl)-2-oxabicyclo[2.2.2]octan-4-yl)ethoxy)acetic acid, TFA salt]	6860
CS(=O)(=O)NC(=O)CCCCC12CCC(c3cccc(Oc4ccccc4)c3)(CC1)OC2 [Example 26, N-(Methylsulfonyl)-5-(1-(3-phenoxyphenyl)-2-oxabicyclo[2.2.2]octan-4-yl)pentanamide]	170
Cc1ccc(Oc2cccc(C34CCC(CCOCC(=O)O)(CC3)CO4)c2)cc1 [Example 41, 2-(2-(1-(3-(p-tolyloxy)phenyl)-2-oxabicyclo [2.2.2]octan-4-yl)ethoxy)acetic acid]	200
COc1ccc(Oc2cccc(C34CCC(CCOCC(=O)O)(CC3)CO4)c2)cc1 [Example 42, 2-(2-(1-(3-(4-methoxyphenoxy)phenyl)-2-oxabicyclo [2.2.2]octan-4-yl)ethoxy)acetic acid]	370
C=C(C)COc1cccc(C23CCC(CCOCC(=O)O)(CC2)CO3)c1 [Example 19, 2-(2-(1-(3-(2-Methylallyloxy)phenyl)-2-oxabicyclo[2.2.2]octan-4-yl)ethoxy)acetic acid]	1980
COc1cccc(Oc2cccc(C34CCC(CCOCC(=O)O)(CC3)OC4)c2)c1 [Example 102]	660
O=C(O)COCCC12CCC(c3cccc(Oc4ccc(F)cc4)c3)(CC1)OC2 [Example 39, 2-(2-(1-(3-(4-fluorophenoxy)phenyl)-2-oxabicyclo[2.2.2]octan-4-yl)ethoxy) acetic acid]	200
O=C(O)C/C=C/CC12CCC(c3cccc(Oc4ccccc4)c3)(CC1)OC2 [Example 34, (E)-5-(1-(3-Phenoxyphenyl)-2-oxabicyclo[2.2.2]octan-4-yl)pent-3-enoic acid]	70
